# What was measured:
# Assay type in all cases: in vivo
# [1] = system: Chilo suppressalis; assay: Insecticidal activity against Chilo suppressalis, spraying of rice seedlings; conditions: 72 h, 3rd instar larvae, 3 days after administration; for mortality at 0.625 µg/mL: 0.625 mg/L; for mortality at 2.5 µg/mL: 2.5 mg/L; for mortality at 10 µg/mL: 10 mg/L
# Procedure: (§1) The compound to be determined was dissolved in a mixed solvent of acetone/methanol (1:1), followed by dilution with water containing 0.1% (wt) Tween 80 to a desired concentration.
# (§2) The activities of the respective compounds against Leucania separata, Plutella xylostella, and Chilo suppressalis were determined by Airbrush spraying method.
# The determination method was as follows: 1) Preparation of rice seedlings: rice plants were cultivated in a plastic cup with a diameter of 4.5 cm and a height of 4 cm in a thermostatic chamber (temperature 26-28° C., relative humidity 60-80%, illumination 16 hL: 8 hD), and when the rice plants were developed to have 4-5 leaves, strong seedlings with identical growth vigour were selected for chemical treatment, and each treatment was replicated 3 times. 2) Preparation of insects to be tested: Chilo suppressalis, 3rd instar larvae, continuous lab rearing. 3) Inoculation of insects by spraying rice plant stems: The whole rice seedlings were sprayed evenly by using the spraying method, with 15 mL of the compound solution for each treatment. Firstly, the blank control was treated, and then the above procedure was replicated according to the order of test concentration from low to high. After rice seedlings were spray-treated, they were placed in the shade to dry, and the stems about 5 cm from the stem bases were cut off to feed the insects to be tested. Glass culture dishes with a diameter of 90 mm were prepared; each dish was padded with a filter paper at the bottom and added with water to keep moisture; about 5 rice stems were put into each dish and inoculated with 10 larvae, and each culture dish was then sealed with a non-woven and cultured in a thermostatic chamber. The number of residual live insects was examined 3 days after administration.
# [2] = system: Leucania separata; assay: Insecticidal activity against Leucania separata, Airbrush spraying of corn leaf segments; conditions: Mythimna separata, foliar, 72 h, 3rd instar larvae, 3 days after administration; for mortality at 1.25 µg/mL: 1.25 mg/L; for mortality at 2.5 µg/mL: 2.5 mg/L; for mortality at 5 µg/mL: 5 mg/L; for mortality at 10 µg/mL: 10 mg/L
# Procedure: as §1, §2
# (§3) The determination method was as follows: Corn leaves were cut into 2 cm long segments; the pressure of Airbrush spraying was 10 psi (about 0.7 kg/cm^2); both sides of each leaf segment were sprayed with 0.5 mL of the compound solution to be tested. After drying in the shade, ten 3rd instar larvae were inoculated for each treatment, and each treatment was replicated 3 times. After treatment, they were cultured in an observation room at a temperature of 25° C. and a relative humidity of 60-70%, and the number of surviving insects was examined and the mortality was calculated three days after administration.
# [3] = system: Plutella xylostella; assay: Insecticidal activity against Plutella xylostella, Airbrush spraying of cabbage leaf discs; conditions: foliar, 72 h, 3rd instar larvae, 3 days after administration; for mortality at 2.5 µg/mL: 2.5 mg/L; for mortality at 5 µg/mL: 5 mg/L; for mortality at 10 µg/mL: 10 mg/L
# Procedure: as §1, §2
# as §3, with “Cabbage” for “Corn”, “made” for “cut”, “into leaf discs with a diameter of” for “into”, “by using a hole puncher;” for “long segments;”, “disc” for “segment”
# [4] = system: Tetranychus cinnabarinus; assay: Acaricidal activity against Tetranychus cinnabarinus in greenhouse, bean seedling spraying; conditions: adult mites, 3 days (72 hours) after treatment; for mortality at 0.625 µg/mL: 0.625 mg/L; for mortality at 1.25 µg/mL: 1.25 mg/L; for mortality at 2.5 µg/mL: 2.5 mg/L; for mortality at 5 µg/mL: 5 mg/L
# Procedure: The compounds of the invention were determined for the acaricidal activity in greenhouse. The determination method was as follows:
# A bean seedling with two true leaves was taken for inoculating 30-40 adult mites of Tetranychus cinnabarinus. After examining the cardinal number, the whole seedling was treated by spraying with a hand-held sprayer, each treatment being replicated 3 times, and then placed in a standard observation room. The number of surviving mites was examined after 72 hours, and the mortality was calculated.
SMILES,mortality at 0.625 µg/mL [1],mortality at 2.5 µg/mL [1],mortality at 10 µg/mL [1],mortality at 1.25 µg/mL [2],mortality at 2.5 µg/mL [2],mortality at 5 µg/mL [2],mortality at 10 µg/mL [2],mortality at 2.5 µg/mL [3],mortality at 5 µg/mL [3],mortality at 10 µg/mL [3],mortality at 0.625 µg/mL [4],mortality at 1.25 µg/mL [4],mortality at 2.5 µg/mL [4],mortality at 5 µg/mL [4]
CCN1OC[C@@H](N(C(=O)COC)C(=O)c2ccc(C3=NOC(c4cc(Cl)cc(Cl)c4)(C(F)(F)F)C3)cc2C)C1=O (mixture of isomers) [Compound 113],86.7%,100%,100%,100%,100%,100%,100%,66.7%,90%,100%,100%,100%,100%,100%
CCN1OC[C@@H](N(C(C)=O)C(=O)c2ccc(C3=NOC(c4cc(Cl)cc(Cl)c4)(C(F)(F)F)C3)cc2C)C1=O (mixture of isomers) [Compound 109],80%,100%,100%,26.7%,63.3%,83.3%,100%,,70%,100%,16.7%,70%,100%,100%
CCOCC(=O)N(C(=O)c1ccc(C2=NOC(c3cc(Cl)cc(Cl)c3)(C(F)(F)F)C2)cc1C)[C@@H]1CON(CC)C1=O (mixture of isomers) [Compound 114],83.3%,100%,100%,100%,100%,100%,100%,60%,86.7%,100%,100%,100%,100%,100%
CCOCC(=O)N(C(=O)c1ccc(C2=NOC(c3cc(Cl)c(F)c(Cl)c3)(C(F)(F)F)C2)cc1C)[C@@H]1CON(CC)C1=O (mixture of isomers) [Compound 122],93.3%,100%,100%,100%,100%,100%,100%,70%,100%,100%,100%,100%,100%,100%
CCN1OC[C@@H](N(C(=O)c2ccc(C3=NOC(c4cc(Cl)c(F)c(Cl)c4)(C(F)(F)F)C3)cc2C)C(=O)C2CC2)C1=O (mixture of isomers) [Compound 120],96.7%,100%,100%,100%,100%,100%,100%,83.3%,100%,100%,100%,100%,100%,100%
CCN1OC[C@@H](N(C(=O)c2ccc(C3=NOC(c4cc(Cl)cc(Cl)c4)(C(F)(F)F)C3)cc2C)C(=O)C2CC2)C1=O (mixture of isomers) [Compound 112],96.7%,100%,100%,80%,96.7%,100%,100%,,70%,100%,96.7%,100%,100%,100%
"CCN1OC[C@@H](N(C(=O)OC)C(=O)c2ccc(C3=NOC(c4cc(Cl)cc(Cl)c4)(C(F)(F)F)C3)cc2C)C1=O (stereo partly shown) [Comparative compound, reference compound]",0%,0%,16.7%,0%,0%,13.3%,73.3%,0%,30%,76.7%,,20%,73.3%,100%
CCN1OC[C@@H](N(C(=O)COC)C(=O)c2ccc(C3=NOC(c4cc(Cl)c(F)c(Cl)c4)(C(F)(F)F)C3)cc2C)C1=O (mixture of isomers) [Compound 121],90%,100%,100%,100%,100%,100%,100%,86.7%,100%,100%,100%,100%,100%,100%
